In BindingDB's records for doi:10.1038/nbt1059 (Plexxikon, 2005):

Tests used:
[1] = biological target: T1, cAMP-specific 3',5'-cyclic phosphodiesterase 4B [316-320,321-700,S319G,N320S,N321H,T322M] (Homo sapiens, UniProt Q07343, S319G/N320S/N321H/T322M); assay: Phosphodiesterase (PDE) Inhibition Assay; settings: pH 7.5; 30 °C
T1 construct: 316-320,321-700
Procedure: (§1) Phosphodiesterase activities were assayed in the presence of inhibitor compounds. Measurement takes advantage of the selective binding of 5-AMP or 5-GMP (and not cAMP or cGMP) to yttrium silicate beads with embedded scintillant. Hydrolysis is quantified by reading in a scintillation counter (Trilux, Wallac). The cAMP and cGMP concentrations used were far below the Km of PDE.

[2] = biological target: cAMP-specific 3',5'-cyclic phosphodiesterase 4D [372-376,381-715,S375G,I381V,S383G,G384S,V385H,K386M) (Homo sapiens, UniProt Q08499, S375G/I381V/S383G/G384S/V385H/K386M); assay: Phosphodiesterase (PDE) Inhibition Assay
Procedure: as §1

Row | IC50 [1] | IC50 [2] | Compound
1 | 60 µM |  | CCOC(=O)c1c(C)n[nH]c1C [ethyl 3,5-dimethyl-1H-pyrazole-4-carboxylate]
2 | > 200 µM | > 200 µM | COC(=O)c1c(-c2cc(C)on2)n[nH]c1C [methyl 3-methyl-5-(5-methyl-1,2-oxazol-3-yl)-1H-pyrazole-4-carboxylate]
3 | 1.5 µM | 0.88 µM | CCOC(=O)c1cn(-c2ccccc2)nc1-c1ccc(Cl)cc1 [ethyl 3-(4-chlorophenyl)-1-phenyl-1H-pyrazole-4-carboxylate]
4 | > 200 µM | > 200 µM | CCOC(=O)c1cn[nH]c1N [ethyl 3-amino-1H-pyrazole-4-carboxylate]
5 | 32 µM | 21 µM | CCOC(=O)c1c(C)nn(-c2ccc(OC(F)(F)F)cc2)c1C [ethyl 3,5-dimethyl-1-[4-(trifluoromethoxy)phenyl]-1H-pyrazole-4-carboxylate]
6 | 17 µM | 19 µM | CCOC(=O)c1c(C)nn(-c2cccc3cccnc23)c1C [ethyl 3,5-dimethyl-1-(quinolin-8-yl)-1H-pyrazole-4-carboxylate]
7 | 15 µM | 19 µM | CCOC(=O)c1c(-c2ccc(OC)cc2)n[nH]c1N [ethyl 3-amino-5-(4-methoxyphenyl)-1H-pyrazole-4-carboxylate]
8 | 0.31 µM |  | CCOC(=O)c1c(C)nn(-c2ccccc2)c1C [ethyl 3,5-dimethyl-1-phenyl-1H-pyrazole-4-carboxylate]
9 | > 200 µM | > 200 µM | CCOC(=O)c1cn[nH]c1C [ethyl 3-methyl-1H-pyrazole-4-carboxylate]
10 | 13 µM | 9.1 µM | CCOC(=O)c1c(C)nn(-c2ccc(S(N)(=O)=O)cc2)c1C [ethyl 3,5-dimethyl-1-(4-sulfamoylphenyl)-1H-pyrazole-4-carboxylate]
11 | 25 µM | 50 µM | CCOC(=O)c1cnn(-c2ncnc3sc4c(c23)CCCC4)c1N [ethyl 5-amino-1-{8-thia-4,6-diazatricyclo[7.4.0.0^{2,7}]trideca-1(9),2(7),3,5-tetraen-3-yl}-1H-pyrazole-4-carboxylate]

Continued, compound first:

Row | Compound | IC50 [1] | IC50 [2]
12 | CCOC(=O)c1c(C)nn(-c2ccc(N)cc2)c1C [ethyl 1-(4-aminophenyl)-3,5-dimethyl-1H-pyrazole-4-carboxylate] | 0.35 µM | 
13 | CCOC(=O)c1c(C)nn(-c2ccc(OC)cc2)c1C [ethyl 1-(4-methoxyphenyl)-3,5-dimethyl-1H-pyrazole-4-carboxylate] | 5.9 µM | 
14 | CCOC(=O)c1c[nH]nc1C(F)(F)F [5-(trifluoromethyl)-1H-pyrazole-4-carboxylic acid ethyl ester] | > 200 µM | > 200 µM
15 | CCOC(=O)c1c(C)nn(-c2ccccc2Cl)c1C [ethyl 1-(2-chlorophenyl)-3,5-dimethyl-1H-pyrazole-4-carboxylate] |  | 0.019 µM
16 | CCOC(=O)c1c(C)nn(-c2ccc([N+](=O)[O-])cc2[N+](=O)[O-])c1C [ethyl 1-(2,4-dinitrophenyl)-3,5-dimethyl-1H-pyrazole-4-carboxylate] | 17 µM | 4.6 µM
17 | Cc1n[nH]c(C)c1C(=O)O [3,5-dimethyl-1H-pyrazole-4-carboxylic acid] | > 200 µM | > 200 µM
18 | CCOC(=O)c1c(C)nn(-c2cc(C(F)(F)F)cc(C(F)(F)F)c2)c1C [ethyl 1-[3,5-bis(trifluoromethyl)phenyl]-3,5-dimethyl-1H-pyrazole-4-carboxylate] | 160 µM | 97 µM
19 | CCOC(=O)c1c(C)nn(-c2ccc(C(C)(C)C)cc2)c1C [ethyl 1-(4-tert-butylphenyl)-3,5-dimethyl-1H-pyrazole-4-carboxylate] | 19 µM | 14 µM
20 | CCOC(=O)c1c(C)nn(-c2ccc([N+](=O)[O-])cc2)c1C [ethyl 3,5-dimethyl-1-(4-nitrophenyl)-1H-pyrazole-4-carboxylate] | 0.84 µM | 1 µM
